± gives the expanded uncertainty stated by the source.
Assay: xn = mol fraction of the nth substance listed
Settings: 298.15 K, 101 kPa, Liquid

CCC(C)Cl (stereo unspecified) [2-chlorobutane] + Cc1ccccc1
excess molar volume (x1 = 0.0856): -6.6e-08 ± 1e-08 m3/mol
excess molar volume (x1 = 0.1276): -9.6e-08 ± 1e-08 m3/mol
excess molar volume (x1 = 0.2495): -1.73e-07 ± 1e-08 m3/mol
excess molar volume (x1 = 0.3441): -2.12e-07 ± 1e-08 m3/mol
excess molar volume (x1 = 0.4723): -2.32e-07 ± 1e-08 m3/mol
excess molar volume (x1 = 0.5018): -2.34e-07 ± 1e-08 m3/mol
excess molar volume (x1 = 0.5569): -2.32e-07 ± 1e-08 m3/mol
excess molar volume (x1 = 0.6025): -2.21e-07 ± 1e-08 m3/mol
excess molar volume (x1 = 0.6712): -2.06e-07 ± 1e-08 m3/mol
excess molar volume (x1 = 0.7991): -1.46e-07 ± 1e-08 m3/mol
excess molar volume (x1 = 0.9046): -7.2e-08 ± 1e-08 m3/mol
excess molar volume (x1 = 0.9432): -4.4e-08 ± 9e-09 m3/mol

CCC(C)Cl (stereo unspecified) [2-chlorobutane] + c1ccccc1
excess molar volume (x1 = 0.0696): 1e-09 ± 9e-09 m3/mol
excess molar volume (x1 = 0.084): 2e-09 ± 9e-09 m3/mol
excess molar volume (x1 = 0.1122): 1e-09 ± 9e-09 m3/mol
excess molar volume (x1 = 0.1524): 2e-09 ± 9e-09 m3/mol
excess molar volume (x1 = 0.1983): -2e-09 ± 9e-09 m3/mol
excess molar volume (x1 = 0.2184): -5e-09 ± 9e-09 m3/mol
excess molar volume (x1 = 0.2744): -5e-09 ± 9e-09 m3/mol
excess molar volume (x1 = 0.3652): -1.8e-08 ± 9e-09 m3/mol
excess molar volume (x1 = 0.4665): -2.6e-08 ± 9e-09 m3/mol
excess molar volume (x1 = 0.5692): -4.4e-08 ± 9e-09 m3/mol
excess molar volume (x1 = 0.6062): -4.8e-08 ± 9e-09 m3/mol
excess molar volume (x1 = 0.752): -5.4e-08 ± 9e-09 m3/mol
excess molar volume (x1 = 0.8041): -4.6e-08 ± 9e-09 m3/mol
excess molar volume (x1 = 0.8573): -4e-08 ± 9e-09 m3/mol
excess molar volume (x1 = 0.9032): -3.5e-08 ± 9e-09 m3/mol
excess molar volume (x1 = 0.9405): -2.5e-08 ± 9e-09 m3/mol

CC(C)(C)Cl [2-chloro-2-methylpropane] + Cc1ccccc1C
excess molar volume (x1 = 0.0698): -1.32e-07 ± 1e-08 m3/mol
excess molar volume (x1 = 0.1023): -1.86e-07 ± 1e-08 m3/mol
excess molar volume (x1 = 0.1642): -2.64e-07 ± 1.1e-08 m3/mol
excess molar volume (x1 = 0.209): -3.06e-07 ± 1.1e-08 m3/mol
excess molar volume (x1 = 0.2653): -3.54e-07 ± 1.2e-08 m3/mol
excess molar volume (x1 = 0.3321): -3.88e-07 ± 1.2e-08 m3/mol
excess molar volume (x1 = 0.4187): -4.22e-07 ± 1.3e-08 m3/mol
excess molar volume (x1 = 0.4979): -4.32e-07 ± 1.3e-08 m3/mol
excess molar volume (x1 = 0.5984): -4.28e-07 ± 1.3e-08 m3/mol
excess molar volume (x1 = 0.6627): -4.16e-07 ± 1.3e-08 m3/mol
excess molar volume (x1 = 0.7452): -3.72e-07 ± 1.2e-08 m3/mol
excess molar volume (x1 = 0.8056): -3.22e-07 ± 1.1e-08 m3/mol
excess molar volume (x1 = 0.9113): -1.88e-07 ± 1e-08 m3/mol
excess molar volume (x1 = 0.9453): -1.24e-07 ± 1e-08 m3/mol

CC(C)(C)Cl [2-chloro-2-methylpropane] + c1ccccc1
excess molar volume (x1 = 0.0821): -9.4e-08 ± 1e-08 m3/mol
excess molar volume (x1 = 0.1115): -1.22e-07 ± 1e-08 m3/mol
excess molar volume (x1 = 0.2016): -1.8e-07 ± 1e-08 m3/mol
excess molar volume (x1 = 0.2989): -2.31e-07 ± 1e-08 m3/mol
excess molar volume (x1 = 0.314): -2.4e-07 ± 1e-08 m3/mol
excess molar volume (x1 = 0.3587): -2.46e-07 ± 1e-08 m3/mol
excess molar volume (x1 = 0.3959): -2.52e-07 ± 1.1e-08 m3/mol
excess molar volume (x1 = 0.446): -2.58e-07 ± 1.1e-08 m3/mol
excess molar volume (x1 = 0.5551): -2.45e-07 ± 1e-08 m3/mol
excess molar volume (x1 = 0.6721): -2.06e-07 ± 1e-08 m3/mol
excess molar volume (x1 = 0.7422): -1.74e-07 ± 1e-08 m3/mol
excess molar volume (x1 = 0.828): -1.28e-07 ± 1e-08 m3/mol
excess molar volume (x1 = 0.914): -6.6e-08 ± 1e-08 m3/mol

CC(C)(C)Cl [2-chloro-2-methylpropane] + Cc1cccc(C)c1
excess molar volume (x1 = 0.0875): -8.4e-08 ± 1e-08 m3/mol
excess molar volume (x1 = 0.1216): -1.16e-07 ± 1e-08 m3/mol
excess molar volume (x1 = 0.1973): -1.76e-07 ± 1e-08 m3/mol
excess molar volume (x1 = 0.2724): -2.22e-07 ± 1e-08 m3/mol
excess molar volume (x1 = 0.3516): -2.58e-07 ± 1.1e-08 m3/mol
excess molar volume (x1 = 0.4307): -2.84e-07 ± 1.1e-08 m3/mol
excess molar volume (x1 = 0.4832): -2.9e-07 ± 1.1e-08 m3/mol
excess molar volume (x1 = 0.5214): -2.94e-07 ± 1.1e-08 m3/mol
excess molar volume (x1 = 0.5768): -2.86e-07 ± 1.1e-08 m3/mol
excess molar volume (x1 = 0.658): -2.66e-07 ± 1.1e-08 m3/mol
excess molar volume (x1 = 0.7305): -2.38e-07 ± 1e-08 m3/mol
excess molar volume (x1 = 0.8543): -1.52e-07 ± 1e-08 m3/mol
excess molar volume (x1 = 0.9112): -9.8e-08 ± 1e-08 m3/mol

CC(C)(C)Cl [2-chloro-2-methylpropane] + Cc1ccccc1
excess molar volume (x1 = 0.0932): -1.14e-07 ± 1e-08 m3/mol
excess molar volume (x1 = 0.1243): -1.48e-07 ± 1e-08 m3/mol
excess molar volume (x1 = 0.1832): -2.11e-07 ± 1e-08 m3/mol
excess molar volume (x1 = 0.2556): -2.75e-07 ± 1.1e-08 m3/mol
excess molar volume (x1 = 0.3342): -3.28e-07 ± 1.1e-08 m3/mol
excess molar volume (x1 = 0.3895): -3.54e-07 ± 1.2e-08 m3/mol
excess molar volume (x1 = 0.428): -3.68e-07 ± 1.2e-08 m3/mol
excess molar volume (x1 = 0.4952): -3.81e-07 ± 1.2e-08 m3/mol
excess molar volume (x1 = 0.5467): -3.76e-07 ± 1.2e-08 m3/mol
excess molar volume (x1 = 0.5985): -3.64e-07 ± 1.2e-08 m3/mol
excess molar volume (x1 = 0.6356): -3.53e-07 ± 1.2e-08 m3/mol
excess molar volume (x1 = 0.6889): -3.2e-07 ± 1.1e-08 m3/mol
excess molar volume (x1 = 0.8102): -2.26e-07 ± 1e-08 m3/mol
excess molar volume (x1 = 0.8961): -1.3e-07 ± 1e-08 m3/mol
excess molar volume (x1 = 0.9405): -7.4e-08 ± 1e-08 m3/mol

CC(C)(C)Cl [2-chloro-2-methylpropane] + Cc1ccc(C)cc1
excess molar volume (x1 = 0.0816): -1.02e-07 ± 1e-08 m3/mol
excess molar volume (x1 = 0.1212): -1.48e-07 ± 1e-08 m3/mol
excess molar volume (x1 = 0.1874): -2.12e-07 ± 1e-08 m3/mol
excess molar volume (x1 = 0.2585): -2.68e-07 ± 1.1e-08 m3/mol
excess molar volume (x1 = 0.308): -3.04e-07 ± 1.1e-08 m3/mol
excess molar volume (x1 = 0.3746): -3.32e-07 ± 1.2e-08 m3/mol
excess molar volume (x1 = 0.4539): -3.56e-07 ± 1.2e-08 m3/mol
excess molar volume (x1 = 0.5117): -3.57e-07 ± 1.2e-08 m3/mol
excess molar volume (x1 = 0.5918): -3.44e-07 ± 1.2e-08 m3/mol
excess molar volume (x1 = 0.6635): -3.18e-07 ± 1.1e-08 m3/mol
excess molar volume (x1 = 0.7516): -2.62e-07 ± 1.1e-08 m3/mol
excess molar volume (x1 = 0.8683): -1.56e-07 ± 1e-08 m3/mol
excess molar volume (x1 = 0.9321): -8.2e-08 ± 1e-08 m3/mol

CCC(C)Cl (stereo unspecified) [2-chlorobutane] + Cc1cccc(C)c1
excess molar volume (x1 = 0.0694): -5.4e-08 ± 9e-09 m3/mol
excess molar volume (x1 = 0.1004): -7.8e-08 ± 1e-08 m3/mol
excess molar volume (x1 = 0.139): -9.4e-08 ± 1e-08 m3/mol
excess molar volume (x1 = 0.2117): -1.22e-07 ± 1e-08 m3/mol
excess molar volume (x1 = 0.2712): -1.43e-07 ± 1e-08 m3/mol
excess molar volume (x1 = 0.3438): -1.5e-07 ± 1e-08 m3/mol
excess molar volume (x1 = 0.4061): -1.56e-07 ± 1e-08 m3/mol
excess molar volume (x1 = 0.4884): -1.62e-07 ± 1e-08 m3/mol
excess molar volume (x1 = 0.5442): -1.62e-07 ± 1e-08 m3/mol
excess molar volume (x1 = 0.601): -1.56e-07 ± 1e-08 m3/mol
excess molar volume (x1 = 0.7408): -1.34e-07 ± 1e-08 m3/mol
excess molar volume (x1 = 0.8431): -1.06e-07 ± 1e-08 m3/mol
excess molar volume (x1 = 0.9249): -6.2e-08 ± 1e-08 m3/mol

CCC(C)Cl (stereo unspecified) [2-chlorobutane] + Cc1ccc(C)cc1
excess molar volume (x1 = 0.0881): -6.5e-08 ± 1e-08 m3/mol
excess molar volume (x1 = 0.163): -1.26e-07 ± 1e-08 m3/mol
excess molar volume (x1 = 0.3481): -2.26e-07 ± 1e-08 m3/mol
excess molar volume (x1 = 0.4012): -2.48e-07 ± 1e-08 m3/mol
excess molar volume (x1 = 0.4742): -2.54e-07 ± 1.1e-08 m3/mol
excess molar volume (x1 = 0.5001): -2.58e-07 ± 1.1e-08 m3/mol
excess molar volume (x1 = 0.5534): -2.52e-07 ± 1.1e-08 m3/mol
excess molar volume (x1 = 0.6264): -2.34e-07 ± 1e-08 m3/mol
excess molar volume (x1 = 0.6784): -2.06e-07 ± 1e-08 m3/mol
excess molar volume (x1 = 0.738): -1.75e-07 ± 1e-08 m3/mol
excess molar volume (x1 = 0.7871): -1.46e-07 ± 1e-08 m3/mol
excess molar volume (x1 = 0.8758): -8.6e-08 ± 1e-08 m3/mol
excess molar volume (x1 = 0.9179): -5.2e-08 ± 9e-09 m3/mol

CCC(C)Cl (stereo unspecified) [2-chlorobutane] + Cc1ccccc1C
excess molar volume (x1 = 0.0784): -6.6e-08 ± 1e-08 m3/mol
excess molar volume (x1 = 0.121): -1.12e-07 ± 1e-08 m3/mol
excess molar volume (x1 = 0.1509): -1.34e-07 ± 1e-08 m3/mol
excess molar volume (x1 = 0.166): -1.47e-07 ± 1e-08 m3/mol
excess molar volume (x1 = 0.2243): -2.01e-07 ± 1e-08 m3/mol
excess molar volume (x1 = 0.314): -2.62e-07 ± 1.1e-08 m3/mol
excess molar volume (x1 = 0.3921): -2.92e-07 ± 1.1e-08 m3/mol
excess molar volume (x1 = 0.4879): -3.1e-07 ± 1.1e-08 m3/mol
excess molar volume (x1 = 0.5552): -2.95e-07 ± 1.1e-08 m3/mol
excess molar volume (x1 = 0.669): -2.46e-07 ± 1e-08 m3/mol
excess molar volume (x1 = 0.7282): -2.12e-07 ± 1e-08 m3/mol
excess molar volume (x1 = 0.8091): -1.42e-07 ± 1e-08 m3/mol
excess molar volume (x1 = 0.8816): -8.6e-08 ± 1e-08 m3/mol
excess molar volume (x1 = 0.9052): -6.4e-08 ± 1e-08 m3/mol

From the NIST ThermoML archive (doi:10.1021/je7002918)
